How the values were obtained:
Assay type in all cases: in vivo, human
[1] = test system: patients with refractory or intolerant advanced myelofibrosis; assay: Phase 2 study, Arms 1 and 2 together (monotherapy or add-on to ruxolitinib)
Experimental: A Phase 2 study of Compound 1 in subjects with myelofibrosis (MF) was conducted. Three treatment arms were studied:
(§1) Arm 1=monotherapy with Compound 1 in patients (pts) who are no longer on Rux and are with refractory, intolerant, or ineligible. In this arm patients were further stratified based on transfusion dependence status [transfusion dependent (TD), defined as an average of >2 units per month over 12 wks, or non-TD cohorts]. Primary endpoint: spleen volume response (SVR) for non-TD cohorts or TD to transfusion independence (TI, no transfusion for consecutive 12 wks) conversion for TD cohorts; secondary endpoints: change in total symptom score (TSS) per MFSAF v4.0, patient global impression of change (PGIC), safety and PK; additional endpoints: changes in proinflammatory Ck levels, BM morphology and mutant allele burden.
as §1, with “2=combination add-on treatment of” for “1=monotherapy with”, “already being administered Rux.” for “no longer on Rux and are with refractory, intolerant, or ineligible.”, “cohorts]. The starting dose of Compound 1 was 125 mg daily on days 1-14 of a 21-day cycle in both arms.” for “cohorts].”
The starting dose of Compound 1 was 125 mg given orally, once daily for 2 weeks on/1 week off in a 21-day dosing cycle. Two separate time points for data analysis occurred for at least Arms 1 and 2 and are discussed below: one at approximately 12 weeks of treatment (first assessment of spleen volume by MRI or CT and every 12 weeks thereafter) and another at approximately 24 weeks of treatment (first assessment of bone marrow biopsy and every 24 weeks thereafter). Patients were added to the study following the first time point.
Demographics and results are as follows: At baseline, median age: 69 years (41-88), gender: 28 (58%) male, ECOG <1: 45 (94%) patients, primary MF: 33 (69%) patients, DIPSS score high: 10 (21%) patients, median platelet: 199 x 1091 (77-895), 34 (71%) patients with Hgb <10 g/dL, median spleen volume: 2183 cc (123-3909), median TSS: 17.6 (1.4-56), 46 (96%) patients had ≥1 JAK2/MPL/CALR mutations, and 34 (71%) patients had HMR (high molecular risk) mutations. 33 (69%) patients on treatment for ≥12 wks, 4 on treatment for >18 months.

[2] = test system: patients with refractory or intolerant myelofibrosis no longer on Rux; assay: Phase 2 study, Arm 1 (Compound 1 monotherapy); settings: for average spleen volume reduction: 24 weeks, FIG. 13A
Experimental: (§2) A Phase 2 study of Compound 1 in subjects with myelofibrosis (MF) was conducted. Three treatment arms were studied: Arm 1=monotherapy with Compound 1 in patients (pts) who are no longer on Rux and are with refractory, intolerant, or ineligible. In this arm patients were further stratified based on transfusion dependence status [transfusion dependent (TD), defined as an average of >2 units per month over 12 wks, or non-TD cohorts]. Primary endpoint: spleen volume response (SVR) for non-TD cohorts or TD to transfusion independence (TI, no transfusion for consecutive 12 wks) conversion for TD cohorts; secondary endpoints: change in total symptom score (TSS) per […]4.0, patient global impression of change (PGIC), safety and PK; additional endpoints: changes in proinflammatory Ck levels, BM morphology and mutant allele burden. The starting dose of Compound 1 was 125 mg given orally, once daily for 2 weeks on/1 week off in a 21-day dosing cycle. Two separate time points for data analysis occurred for at least Arms 1 and 2 and are discussed below: one at approximately 12 weeks of treatment (first assessment of spleen volume by MRI or CT and every 12 weeks thereafter) and another at approximately 24 weeks of treatment (first assessment of bone marrow biopsy and every 24 weeks thereafter). Patients were added to the study following the first time point. Patients were added to the study following the first data cut and treatment was continued for approximately 25.9 weeks (median, range: 0.4, 116.6).

[3] = test system: patients with refractory or intolerant myelofibrosis already being administered Rux; assay: Phase 2 study, Arm 2 (Compound 1 add-on to ruxolitinib)
Experimental: as §2, with “2=combination add-on treatment of” for “1=monotherapy with”, “already being administered Rux.” for “no longer on Rux and are with refractory, intolerant, or ineligible.”, “cohorts]. The starting dose of Compound 1 was 125 mg daily on days 1-14 of a 21-day cycle in both arms.” for “cohorts].”

[4] = Time Point 2, Arms 1 and 2, FIG. 14
[5] = Time Point 1, Compound 1 with ruxolitinib

Cc1noc2c1-c1ccccc1C(c1ccc(Cl)cc1)=N[C@H]2CC(N)=O [Compound 1, 2-((4S)-6-(4-chlorophenyl)-1-methyl-4H-benzo[c]isoxazolo[4,5-e]azepin-4-yl)acetamide]
most common (≥20%) treatment-emergent adverse events of any Gr ([1]; Time Point 1): diarrhea, nausea, cough and upper respiratory tract infection
≥3 Gr TEAE anemia ([1]; Time Point 1): 8.3%
patients with improvement in BM fibrosis and/or reticulin by ≥1 Gr ([1]; Time Point 1, 7 of 12 evaluable patients, as early as 6-months): 58%
patients with ≥50% TSS improvement ([1]; Time Point 1, 11 patients): 39%
patients reporting much or very much improved PGIC scores ([1]; Time Point 1, 21 patients): 64%
patients with TSS improvement ([1]; Time Point 1, 26 of 28 patients, FIG. 8 panel B): 93%
patients with PGIC improvement score ([1]; Time Point 1, 28 of 33 patients): 85%
patients with spleen volume reduction ([1]; Time Point 1, 29 of 31 patients, FIG. 8 panel A): 94%
≥3 Gr TEAE thrombocytopenia ([1]; Time Point 1, asymptomatic, non-cumulative and generally reversible): 8.3%
subjects with bone marrow fibrosis improvement [1, 4]: about 38%
subjects with bone marrow fibrosis improvement as early as 6-months [1, 4]: about 32%
tolerability ([1]; alone or add-on to ruxolitinib): generally well-tolerated
patients with increase in hemoglobin by 1.5 mg/dL post-baseline ([2]; Time Point 1, monotherapy, 4 of 8): 50%
average spleen volume reduction ([2]; Time Point 2, TD patients (Cohort 1A)): about −3.2%
average spleen volume reduction ([2]; Time Point 2, non-TD patients (Cohort 1B)): about −26%
patients with improved PGIC ([2]; Time Point 2, TD patients): about 50%
patients with improvement in bone marrow fibrosis ([2]; Time Point 2, TD patients): about 25%
patients with improved PGIC ([2]; Time Point 2, non-TD patients): 100%
patients with improvement in disease symptoms per TSS ([2]; Time Point 2, non-TD patients): About 60%
TD patients converted to TI [3, 5]: 4 patients
duration of TI in 2 of the converted patients [3, 5]: > 36 wks
patients with increase in hemoglobin by 1.5 mg/dL post-baseline ([3]; Time Point 1, Compound 1 with ruxolitinib, 4 of 25): 16%
average spleen volume reduction ([3]; Time Point 2, 24 weeks, non-transfusion dependent at start, FIG. 12A): about −10.9%
average spleen volume reduction ([3]; Time Point 2, 24 weeks, transfusion dependent at start): about −24.9%
patients converted from transfusion dependent to transfusion independent ([3]; Time Point 2, 24 weeks, transfusion dependent at start, FIG. 10A): about 35%
average time of conversion from TD to TI ([3]; Time Point 2, Arm 2): about 14 weeks
average transfusion free time post-conversion ([3]; Time Point 2, Arm 2): about 14 weeks
maximum transfusion free time post-conversion ([3]; Time Point 2, Arm 2): 85 weeks
patients with greater than or equal to a 50% reduction in transfusion intensity ([3]; Time Point 2, Arm 2): About 41%
patients with improvement in bone marrow fibrosis ([3]; Time Point 2, non-transfusion dependent at start): about 25%
patients with improvement in disease symptoms per TSS ([3]; Time Point 2, non-transfusion dependent at start, FIG. 12B): About 38%
patients with improved PGIC ([3]; Time Point 2, non-transfusion dependent at start, FIG. 12C): about 69%
patients with improvement in disease symptoms per TSS ([3]; Time Point 2, transfusion dependent at start, FIG. 10B): About 76.5%
patients with improved PGIC ([3]; Time Point 2, transfusion dependent at start, FIG. 10C): about 75%

— patent publication US12070464B2, “Methods of treating myeloproliferative disorders” (priority 2019, dated 2024)
